Reference: ChEMBL document CHEMBL1155545, “Design, synthesis and evaluation of 2,4-disubstituted pyrimidines as cholinesterase inhibitors” (Bioorg Med Chem Lett, 2010)

Legend:
Acetylcholinesterase = Acetylcholinesterase (Electrophorus electricus, UniProt O42275)
Description: Inhibition of electric eel AChE

Cholinesterase = Cholinesterase (Equus caballus, UniProt P81908)
Chain of Cholinesterase (P81908 whole entry): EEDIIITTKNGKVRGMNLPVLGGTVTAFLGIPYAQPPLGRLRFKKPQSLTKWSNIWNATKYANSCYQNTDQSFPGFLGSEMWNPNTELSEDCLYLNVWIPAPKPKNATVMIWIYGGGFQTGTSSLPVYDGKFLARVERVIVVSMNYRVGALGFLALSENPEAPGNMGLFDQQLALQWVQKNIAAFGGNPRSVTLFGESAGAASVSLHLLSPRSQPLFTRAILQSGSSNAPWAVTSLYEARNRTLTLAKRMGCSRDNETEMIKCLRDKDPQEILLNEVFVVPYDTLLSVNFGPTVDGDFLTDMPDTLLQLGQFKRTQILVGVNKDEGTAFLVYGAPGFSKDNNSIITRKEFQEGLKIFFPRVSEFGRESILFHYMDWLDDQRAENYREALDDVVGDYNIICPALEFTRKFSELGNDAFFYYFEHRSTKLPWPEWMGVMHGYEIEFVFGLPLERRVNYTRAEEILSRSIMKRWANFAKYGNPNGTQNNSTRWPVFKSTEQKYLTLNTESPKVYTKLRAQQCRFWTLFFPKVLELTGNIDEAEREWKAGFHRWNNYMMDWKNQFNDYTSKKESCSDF
Description: Inhibition of equine serum BuChE

Chain of Acetylcholinesterase (O42275 whole entry): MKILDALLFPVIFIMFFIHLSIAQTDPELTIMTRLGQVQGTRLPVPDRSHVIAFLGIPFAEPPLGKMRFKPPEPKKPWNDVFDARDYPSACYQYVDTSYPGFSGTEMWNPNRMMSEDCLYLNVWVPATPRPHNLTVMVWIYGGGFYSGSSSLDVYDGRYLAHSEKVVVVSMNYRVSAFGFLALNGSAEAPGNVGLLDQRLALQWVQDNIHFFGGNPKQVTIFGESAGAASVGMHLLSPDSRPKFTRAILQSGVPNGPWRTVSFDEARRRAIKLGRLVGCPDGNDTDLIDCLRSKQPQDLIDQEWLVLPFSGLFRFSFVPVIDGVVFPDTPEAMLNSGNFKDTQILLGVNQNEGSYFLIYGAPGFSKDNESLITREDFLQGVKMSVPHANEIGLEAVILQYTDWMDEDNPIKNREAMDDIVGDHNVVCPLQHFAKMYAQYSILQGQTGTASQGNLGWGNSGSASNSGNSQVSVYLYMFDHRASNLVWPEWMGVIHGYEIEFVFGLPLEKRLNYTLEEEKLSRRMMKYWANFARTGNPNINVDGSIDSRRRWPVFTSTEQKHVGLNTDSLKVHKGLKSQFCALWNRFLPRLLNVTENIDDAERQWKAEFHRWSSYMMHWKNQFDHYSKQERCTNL

Structure (SMILES)	IC50 (Acetylcholinesterase)	IC50 (Cholinesterase)
c1ccc2c(CNc3ccnc(N4CCOCC4)n3)cccc2c1	15.7 µM	28 µM
CC1CCN(c2nccc(NCc3ccccc3)n2)CC1	0.39 µM	2.9 µM
c1ccc2c(CNc3ccnc(N4CCSCC4)n3)cccc2c1	15.5 µM	
CC1CCN(c2nccc(NCCc3ccccc3)n2)CC1	7.9 µM	17.7 µM
CN1CCN(c2nccc(NCCc3ccccc3)n2)CC1	14.4 µM	> 100 µM
c1ccc(CCNc2ccnc(N3CCOCC3)n2)cc1	4.8 µM	> 100 µM
c1ccc(CNc2ccnc(N3CCOCC3)n2)cc1	0.5 µM	
c1ccc2c(CNc3ccnc(N4CCCC4)n3)cccc2c1	5.8 µM	8.9 µM
CN1CCN(c2nccc(NCc3cccc4ccccc34)n2)CC1	17.6 µM	2.6 µM
c1ccc(CCNc2ccnc(N3CCSCC3)n2)cc1	25 µM	> 100 µM
c1ccc2c(NCCCCCCCNc3c4c(nc5ccccc35)CCCC4)c3c(nc2c1)CCCC3	0.0018 µM	0.0105 µM
c1ccc(CNc2ccnc(N3CCCC3)n2)cc1	9.8 µM	26.4 µM
CN1CCN(c2nccc(NCc3ccccc3)n2)CC1	0.56 µM	> 100 µM
c1ccc(CNc2ccnc(N3CCSCC3)n2)cc1	0.33 µM	2.3 µM
